Here are results for 2 molecules from patent EP0557303B1, “N- (2-THENOYLMERCAPTO-3-METHYL)-BUTANOYL]-HOMOCYSTEINE THIOLACTONE, A PROCESS FOR THE PREPARATION THEREOF AND PHARMACEUTICAL COMPOSITIONS CONTAINING IT” (priority 1990, dated 1992).

Assay [1] concerns arteriosclerotic lesions induced by the diet in the rabbit. Put plainly: Antiarteriosclerotic activity (procedure of C.T. Cahn, diet-induced lesions). The class given is in vivo. The settings on record: compound given together with the diet, end of a 12 week treatment. The protocol: The antiarteriosclerotic activity was tested according to the procedure described by C.T. Cahn, Circul. Research, 43, 115, 1975. The procedure consists in verifying any protecting actions of a drug on arteriosclerotic lesions induced by the diet in the rabbit.

Assay [2] addresses collagenase from Clostridium Histolyticum. Put plainly: Collagenase inhibiting activity (method of Appel, substrate N-carbobenzoxy-pro-gly-gly-L-pro-L-alanine). The conditions noted are these: collagenase type II (Sigma), collagen synthetic peptide substrate. In kind it is biochemical. How it is done:
The proteolytic activity of collagenase from Clostridium Histolyticum (Sigma, type II) was dosed according to the method by Appel (Method in enzymatic analysis, H.U. Bergmayer Vol. 2, pp. 1058-1063; 1978) using the collagen synthetic peptide N-carbobenzoxy-pro-gly-gly-L-pro-L-alanine as the substrate.

On to `CC(C)C(SC(=O)c1cccs1)C(=O)NC1CCSC1=O` (stereo not drawn) [MR-2047, N-[(2-thenoylmercapto-3-methyl)-butanoyl]-homocysteine thiolactone], for which, in assay [1], the cholesterol levels result was “significant reduction”, the “collagen levels in the connective tissue of the aorta intima” value is listed as “significant reduction”, the “elastin levels in the connective tissue of the aorta intima” value is “significant reduction” and the triglyceride levels result was “significant reduction”. Moreover, in assay [2] (read-out: IC₅₀), the IC50 was roughly 2 µM.
Consider `CC(SC(=O)c1cccs1)C(=O)NC1CCSC1=O` (stereo not drawn) [MR-889, 2-(2-Thenoylthio)-N-(2',3',4',5'-tetrahydro-2'-keto-thiophen-3'-yl)propionyl amide, reference compound], for which the inhibiting activity entry in assay [2] was “almost no inhibiting activity”.
